Assay results taken from patent US20240247030A1, “TARGETED DELIVERY OF TERTIARY AMINE-CONTAINING DRUG SUBSTANCES” (Seagen Inc., priority 2014, published 2024).
Read-outs that look alike come from different tables or passages of the source.

Tests used:
[1] = Pharmacokinetics of radiolabeled antibody or ADC; assay type: in vivo, rat; settings: 1 mg/kg i.v., radiolabeled non-targeting ADC
Method: PK test articles were radiolabeled using the following procedure.
Each test article was dosed once in replicate animals.

HL60 AML cells = experiment: cells; assay type: cell-based; settings: Homo sapiens, HL-60, 96 h, read-out: IC50, HL60, AML, Table 13; free drug, 96 hours
Method: (§1) In vitro assays. Cells cultured in log-phase growth were seeded for 24 h in 96-well plates containing 150 μL RPMI 1640 supplemented with 20% FBS. Serial dilutions of antibody-drug conjugates in cell culture media were prepared at 4× working concentrations; 50 μL of each dilution was added to the 96-well plates. Following addition of ADC, cells were incubated with test articles for 4 d at 37° C. After 96 h, growth inhibition was assessed by CellTiter-Glo™ (Promega, Madison, W1) and luminescence was measured on a plate reader. The IC50 value, determined in triplicate, is defined here as the concentration that results in a 50% reduction in cell growth relative to untreated controls.

HEL9217 AML cells = experiment: In vitro cytotoxicity (CellTiter-Glo, 96 h); assay type: cell-based; settings: Homo sapiens, HEL 92.1.7, 96 h, read-out: IC50, HEL9217, MDR+ AML
[2] = system: Hep3B hepatocellular carcinoma cells; experiment: In vitro cytotoxicity (CellTiter-Glo, 96 h); assay type: cell-based; settings: Table 10; cAC10 conjugate, 8 drug units/Ab; antigen-negative cells
Method: as §1

L428 MDR+ HL cells = experiment: In vitro cytotoxicity (CellTiter-Glo, 96 h); assay type: cell-based
DEL/BVR MDR+ ALCL cells = assay type: cell-based
Method: as §1

Karpas299 ALCL cells = experiment: In vitro cytotoxicity (CellTiter-Glo, 96 h); assay type: cell-based
Method: as §1

[3] = system: L540cy Hodgkin lymphoma cells; experiment: In vitro cytotoxicity (CellTiter-Glo, 96 h); assay type: cell-based
DEL ALCL cells = assay type: cell-based
HCT-15 cells = experiment: Intracellular drug release (LC-MS/MS, 24 hr); assay type: cell-based; settings: Table 12, free drug @ 50 nM
Method: (§2) Intracellular drug release. TFlα, L428, and HCT-15 cells were used for the study. Cells that had been cultured under normal conditions were harvested and washed into fresh medium at ˜5×10^5 cells/mL. For each treatment condition, 5-15×10^6 cells were plated in T25 or T150 flasks. cOKT9-5023 (8-drugs/Ab) was added at 1 μg/mL to cultures and they were incubated at 37° C., 5% CO2 for 24 hr. For suspension cells, a known volume of cell culture was harvested by centrifugation (500×g, 5 min, 4° C.), and an aliquot of the medium was removed and stored for mass spectral analysis (−20° C.). For adherent cells the medium was carefully removed (an aliquot stored for mass spectral analysis) and the cells lifted with trypsin-EDTA followed by centrifugation (500×g, 5 min, 4° C.) to collect the cell pellet. For both suspension and adherent cells, the harvested cell pellets were resuspended in ice cold PBS and an aliquot was removed for enumeration and determination of average cell diameters using a Vi-Cell XR2.03 cell viability analyzer (Beckman Coulter, Fullerton, CA). The remaining cell suspensions were pelleted (500×g, 5 min) and then washed once more with 1 mL of ice cold PBS. The resulting pellets were stored at −20° C.
(§3) Untreated samples were generated using untreated cell pellets and culture medium for use in calibration curves. Untreated cell pellets were spiked with 4 μL of 25× standard analyte. Both spiked and treated cell pellets were suspended by vortexing in 400 μL of MeOH containing internal standard and placed at −20° C. for 15 min. The samples were then centrifuged at 16,000×g and the supernatants were prepared for solid phase extraction. Untreated culture medium samples (0.5 mL) were spiked with 4 μL of 25× standard. Both spiked and treated culture media were mixed with 10 μL of internal standard and prepared for solid phase extraction. Samples were subjected to solid phase extraction and the recovered drug-containing solutions were dried and reconstituted for quantification by LC-MS/MS. To derive an equation for the quantitation of released drug in the experimental unknown samples, the peak area for each drug standard was divided by the peak area obtained for the internal standard. The resultant peak area ratios were plotted as a function of the standard spiked amounts and the data points were fitted to a curve using linear regression. The peak area ratios obtained for released drug to internal standard in the experimental samples were converted to drug amounts using the derived equation.
(§4) MDR cell lines that are CD71^+ are exposed to an LDC (1 μg/mL) comprised of and antibody targeting CD71 (cOKT9) and a quaternized MDR inhibitor (Tariquidar™). The LDC composition designated as cOKT9-gluc4-T was obtained from compound 36 of Scheme 6 and predominately contains LDCs having 8 D^+ units wherein D^+ is quaternized Tariquidar. The predominate LDC of the composition, after controlled hydrolysis of the succinimide ring system is represented by the structure of: […]

L428 cells = experiment: Intracellular drug release (LC-MS/MS, 24 hr); assay type: cell-based; settings: Table 12, free drug @ 50 nM
Method: as §2, §3, §4

TF1a cells = experiment: Intracellular drug release (LC-MS/MS, 24 hr); assay type: cell-based; settings: Table 12
Method: as §2, §3, §4

RL cells = experiment: In vitro cytotoxicity (CellTiter-Glo, 96 h); assay type: cell-based; settings: Table 4
Method: as §1

Ramos NHL cells = experiment: In vitro cytotoxicity (CellTiter-Glo, 96 h); assay type: cell-based; settings: Table 4
Method: as §1

[4] = Table 10, cAC10 conjugate, 8 drug units/Ab
[5] = Table 7, cAC10 conjugate of the Drug-Linker, 8 D+/Ab, 96 h
[6] = Table 4, quaternized auristatin E ADC, 8 D+/Ab
[7] = quaternized auristatin E ADC, 8 D+/Ab, CD30-, CD19+

CC[C@H](C)[C@@H]([C@@H](CC(=O)N1CCC[C@H]1[C@H](OC)[C@@H](C)C(=O)N[C@H](C)[C@@H](O)c1ccccc1)OC)N(C)C(=O)[C@@H](NC(=O)[C@H](C(C)C)[N+](C)(C)Cc1ccc(O[C@@H]2O[C@H](C(=O)O)[C@@H](O)[C@H](O)[C@H]2O)c(NC(=O)CCNC(=O)[C@H](CN)N2C(=O)C=CC2=O)c1)C(C)C [Compound 8]
clearance / exposure profile compared with unconjugated antibody (FIG. 12-14) [1]: PK properties identical to that of unmodified antibody through 7 days

CC[C@H](C)[C@H](NC(=O)[C@H]1CCCCN1C)C(=O)N(C)[C@H](C[C@@H](OC(C)=O)c1nc(C(=O)N[C@@H](Cc2ccccc2)C[C@H](C)C(=O)O)cs1)C(C)C [Compound 26, Tubulysin M, reference compound]
IC50 (HL60 AML cells): 0.2 nM | IC50 (HEL9217 AML cells): 0.4 nM

CC[C@H](C)[C@H](NC(=O)[C@H]1CCCC[N+]1(C)Cc1ccc(NC(=O)[C@H](C)NC(=O)[C@@H](NC(=O)[C@H](CN)N2C(=O)C=CC2=O)C(C)C)cc1)C(=O)N(C)[C@H](C[C@@H](OC(C)=O)c1nc(C(=O)N[C@@H](Cc2ccccc2)C[C@H](C)C(=O)O)cs1)C(C)C (stereo partly drawn) [Compound 32, (2R)-2-(((2S,3S)-1-(((1R,3R)-1-acetoxy-1-(4-(((2R,4S)-4-carboxy-1-phenylpentan-2-yl)carbamoyl)thiazol-2-yl)-4-methylpentan-3-yl)(methyl)amino)-3-methyl-1-oxopentan-2-yl)carbamoyl)-1-(4-((S)-2-((S)-2-((S)-3-amino-2-(2,5-dioxo-2,5-dihydro-1H-pyrrol-1-yl)propanamido)-3-methylbutanamido)propanamido)benzyl)-1-methylpiperidin-1-ium]
IC50, Hep3B, CD30- HCC [2]: >1000 ng/mL | IC50, L428, MDR+ HL (L428 MDR+ HL cells; [4]): 1 ng/mL | IC50, DEL/BVR, MDR+ ALCL (DEL/BVR MDR+ ALCL cells; [4]): 4 ng/mL

CCCO[C@H](C[C@H](C(C)C)N(C)C(=O)[C@@H](NC(=O)[C@H]1CCCC[N+]1(C)Cc1ccc(O[C@@H]2O[C@H](C(=O)O)[C@@H](O)[C@H](O)[C@H]2O)c(NC(=O)CCNC(=O)[C@H](CN)N2C(=O)C=CC2=O)c1)[C@@H](C)CC)c1nc(C(=O)N[C@@H](Cc2ccccc2)C[C@H](C)C(=O)O)cs1 (stereo partly drawn) [Compound 80, (2R)-1-(3-(3-((S)-3-amino-2-(2,5-dioxo-2,5-dihydro-1H-pyrrol-1-yl)propanamido)propanamido)-4-(((2S,3R,4S,5S,6S)-6-carboxy-3,4,5-trihydroxytetrahydro-2H-pyran-2-yl)oxy)benzyl)-2-(((2S,3S)-1-(((1R,3R)-1-(4-(((2R,4S)-4-carboxy-1-phenylpentan-2-yl)carbamoyl)thiazol-2-yl)-4-methyl-1-propoxypentan-3-yl)(methyl)amino)-3-methyl-1-oxopentan-2-yl)carbamoyl)-1-methylpiperidin-1-ium]
clearance / exposure profile compared with unconjugated antibody (FIG. 12-14) [1]: cleared from circulation much more rapidly than the unmodified antibody

CC[C@H](C)[C@H](NC(=O)[C@H]1CCCC[N+]1(C)Cc1ccc(O[C@@H]2O[C@H](C(=O)O)[C@@H](O)[C@H](O)[C@H]2O)c(NC(=O)CCNC(=O)[C@H](CN)N2C(=O)C=CC2=O)c1)C(=O)N(C)[C@H](C[C@@H](OC(C)=O)c1nc(C(=O)N[C@@H](Cc2ccccc2)C[C@H](C)C(=O)O)cs1)C(C)C (some centres unmarked) [Compound 104]
IC50, Hep3B, CD30- HCC [2]: >1000 ng/mL | IC50, Karpas299, ALCL (Karpas299 ALCL cells; Table 7, cAC10 (anti-CD30) conjugate of the Drug-Linker, 8 D+/Ab, 96 h): 0.6 ng/mL | IC50, L540cy, HL [3, 5]: 4 ng/mL | IC50, L428, MDR+ HL (L428 MDR+ HL cells; [5]): 0.5 ng/mL | IC50, L428, MDR+ HL (L428 MDR+ HL cells; [4]): 0.4 ng/mL | IC50, DEL, ALCL (DEL ALCL cells; [5]): 2 ng/mL | IC50, DEL, ALCL (DEL ALCL cells; Table 11, cAC10 conjugate, 8-drugs/mAb): 2 ng/mL | IC50, DEL/BVR, MDR+ ALCL (DEL/BVR MDR+ ALCL cells; [5]): 3 ng/mL | IC50, DEL/BVR, MDR+ ALCL (DEL/BVR MDR+ ALCL cells; [4]): 4 ng/mL

CC[C@H](C)[C@H](NC(=O)[C@H]1CCCC[N+]1(C)Cc1ccc(NC(=O)[C@H](CCC(=O)O)NC(=O)[C@@H](NC(=O)[C@H](CN)N2C(=O)C=CC2=O)C(C)C)cc1)C(=O)N(C)[C@H](C[C@@H](OC(C)=O)c1nc(C(=O)N[C@@H](Cc2ccccc2)C[C@H](C)C(=O)O)cs1)C(C)C (stereo partly drawn) [Compound 113, (2R)-2-(((2S,3S)-1-(((1R,3R)-1-acetoxy-1-(4-(((2R,4S)-4-carboxy-1-phenylpentan-2-yl)carbamoyl)thiazol-2-yl)-4-methylpentan-3-yl)(methyl)amino)-3-methyl-1-oxopentan-2-yl)carbamoyl)-1-(4-((S)-2-((S)-2-((S)-3-amino-2-(2,5-dioxo-2,5-dihydro-1H-pyrrol-1-yl)propanamido)-3-methylbutanamido)-4-carboxybutanamido)benzyl)-1-methylpiperidin-1-ium]
IC50, Hep3B, CD30- HCC [2]: >1000 ng/mL | IC50, L428, MDR+ HL (L428 MDR+ HL cells; [4]): 0.3 ng/mL | IC50, DEL/BVR, MDR+ ALCL (DEL/BVR MDR+ ALCL cells; [4]): 2 ng/mL

COc1cc2c(cc1OC)CN(CCc1ccc(NC(=O)c3cc(OC)c(OC)cc3NC(=O)c3cnc4ccccc4c3)cc1)CC2 [Free drug, Tariquidar]
Intracellular drug, HCT-15 (HCT-15 cells): 6.649 µM | extracellular drug, HCT-15 (HCT-15 cells; parenthetic value): 44.3 nM | Intracellular drug, L428 (L428 cells): 4.846 µM | extracellular drug, L428 (L428 cells; parenthetic value): 47.0 nM | Intracellular drug, TF1a (TF1a cells; free drug (Tariquidar) @ 50 nM): 3.575 µM | extracellular drug, TF1a (TF1a cells; free drug @ 50 nM, parenthetic: free drug that remains outside the cell): 43.8 nM

B1: hBU12-14: "vcPAB4-AE ... obtained from compound 14 of Scheme 2 and ... monoclonal antibody hBU12, which targets C19+ cells" (conjugate, chains of the INN, looked up)
VH: QVQLQESGPGLVKPSQTLSLTCTVSGGSISTSGMGVGWIRQHPGKGLEWIGHIWWDDDKRYNPALKSRVTISVDTSKNQFSLKLSSVTAADTAVYYCARMELWSYYFDYWGQGTLVTVSS
VL: EIVLTQSPATLSLSPGERATLSCSASSSVSYMHWYQQKPGQAPRLLIYDTSKLASGIPARFSGSGSGTDFTLTISSLEPEDVAVYYCFQGSVYPFTFGQGTKLEIK
modifications: vcPAB4-auristatin E drug-linker 14
viable cells remaining at the bottom of the dose-response curve, Karpas-299 (Karpas299 ALCL cells; Table 4, parenthetic value): 10% | IC50 for cell growth inhibition, Karpas-299 (Karpas299 ALCL cells; [6]): 3903 ng/mL | viable cells remaining at the bottom of the dose-response curve, RL (RL cells; parenthetic value): 21% | IC50 for cell growth inhibition, RL (RL cells; [7]): 2110 ng/mL | viable cells remaining at the bottom of the dose-response curve, Ramos (Ramos NHL cells; parenthetic value): 0% | IC50 for cell growth inhibition, Ramos (Ramos NHL cells; [7]): 0.7 ng/mL | viable cells remaining at the bottom of the dose-response curve, L540cy parental ([3]; Table 4, parenthetic value): 44% | IC50 for cell growth inhibition, L540cy parental [3, 6]: 5080 ng/mL | viable cells remaining at the bottom of the dose-response curve, L428 (L428 MDR+ HL cells; Table 4, parenthetic value): 41% | IC50 for cell growth inhibition, L428 (L428 MDR+ HL cells; [6]): 8614 ng/mL
